# Laboratory results reported in patent US20240277708A1, “Use of [1,2,4] Triazolo [4,3-B] Pyridazine Derivative For Preventing and Treating Senescence and Senescence-Related Diseases” (The Eighth Affiliated Hospital, Sun Yat-Sen University, priority 2023, published 2024).
# Legend:
# [1] = test system: C57BL/c mice, VD3-induced vascular calcification; assay: VD3-induced aortic vascular calcification mouse model, alizarin red staining; assay type: in vivo; details: VD3 500 IU/g/day for 2 days, C1632 68 mg/kg twice a week, after 6 days; FIG. 15
# Procedure: C57BL/c mice were intraperitoneally injected with VD3 at a dose of 500 IU/g/day for 2 consecutive days, and then divided into: (1) Saline group; (3) C1632 group, 10 mice in each group. C1632 was administered twice a week, and CKD mice were treated with C1632 at a dose of 68 mg/kg of body weight each time. After 6 days, the mice were sacrificed, and the aortic blood vessels were dissected for alizarin red staining and hydroxyapatite staining.
# [2] = test system: BJ cells; assay: VP16-induced cellular senescence, SA-β-gal staining, BJ cells; assay type: cell-based, Human; details: C1632 120 μM, VP16 40 μM for 4-7 days, FIG. 1A, 1B
# Procedure: MRC5 and BJ cells were cultured in DMEM low-glucose medium containing 10% FBS. The cells were passaged or plated at a ratio of 1:3.0.5×10^5 cells were plated in 12-well plates and in the next day treated with VP16 at a final concentration of 40 μM for 4-7 days to induce cellular senescence. A cellular senescence model was constructed. While inducing cellular senescence, C1632 with a final concentration of 120 μM is added. The effect of C1632 on the senescence of BJ and MRC5 cells was detected by SA-β-gal staining, and the effect of C1632 on cellular senescence was studied.
# [3] = test system: senescent TC-1 cells; assay: T cell killing assay (LDH release) on bleomycin-induced senescent TC-1 cells with immune cells from treated IPF mice; assay type: cell-based, mouse; details: ratio 1:50, 4 h
# Procedure: 1, The senescence of TC-1 cells was induced with bleomycin, and the senescence of TC-1 cells was reflected through SA-β-Gal staining (FIG. 4A).
# 2, T cell killing assay: Bleomycin-induced senescent TC1 cells were plated at 10, 000/well in 96-well plates. The cell culture supernatant was discarded the next day, and then, PBMCS, CD3^+ T cells, and CD8^+ T cells isolated from normal mice, saline treated idiopathic pulmonary fibrosis (IPF) mice and C1632-treated IPF mice were add at a ratio of 1:50. After incubation at 37° C. for 4 h, the supematantwas obtained after centrifugation. LDH enzyme was released from the killed senescent cells, and the killing effect of immune cells on senescent cells was detected by LDH kit. Bleomycin at a dose of 2 mg/kg was sprayed into the lungs of mice to construct IPF mouse model, each group of the above experiments had at least 6 mice.
# Isolation and culture of CD8^+ T cells: Mouse spleens were ground under sterile conditions and filtered through a 200-mesh sieve. The filtered cells were sorted by CD8^+ T cell isolation kit (biolegend). The sorted T cells were cultured in PRMI1640 medium containing 10% FBS, 5 μg/mL anti-mouse CD28 antibody (biolegend), and 10 ng/mL IL-2 in the plates coated overnight with 5 μg/mL CD3 antibody (biolegend) until use.
# [4] = test system: IPF mice (C57BL/6, bleomycin); assay: Bleomycin-induced idiopathic pulmonary fibrosis (IPF) mouse model; assay type: in vivo
# Procedure: A mouse model of […] was constructed by injecting bleomycin (2 mg/kg) into the lungs of the mice through the airway after anesthesia.
# (1) Sacrificing the mice after anesthesia, and weighing the lungs and recording as Mlung; {umlaut over (2)} weighing the empty 1.5 mL centrifuge tube, filling with normal saline and the recording the weight of the centrifuge tube again; calculating the exact volume of the tube (Vtube) based on the weight and density of normal saline; (3) completely immersing the lung tissue in the normal saline of the centrifuge tube, covering the lid of centrifuge tube after removing the air, wiping off the water stains around the tube, and recording the weight as M; (4) calculating the weight of normal saline in the tube: […]; (5) calculating the volume of normal saline in the tube: Vsaline=[…], wherein, ρsaline is the density of normal saline; (6) calculating lung volume: Vlung=Vtube−Vsaline; and (7) calculating lung density: μlung=Mlung/Vlung.
# The lung tissues were fixed by immersion in 4% paraformaldehyde and then gradiently dehydrated in 70% ethanol for 5 hours, 80% ethanol for 1 h, 90% ethanol for 1 h, 95% ethanol for 1 h, absolute ethanol for 1 h, absolute ethanol for 0.5 h, absolute ethanol+TO (1:1) for 1 h, TO for 1 h, TO for 1 h, paraffin (62° C.) for 1 h, paraffin (62° C.) for 1 h, paraffin (62° C.) for 1 h. After dehydration, the lung tissues were wrapped in the wax blocks and sectioned with a thickness of 4 μm. The paraffin sections were baked at 65° C. for 1 h and then exposed to xylene for 5 min, xylene for 5 min, absolute ethanol for 5 min, 95% ethanol for 5 min, 90% ethanol for 5 min, 85% ethanol for 5 min, 75% ethanol for 5 min; then, gently boiled in citric acid solution for 10 min and naturally cooled to room temperature, and exposed to 3% hydrogen peroxide for 10 min. The sections were blocked with goat antiserum for 1 h at room temperature, incubated overnight with primary antibodies against CD45 (abeam), CD3 (abeam) or CD68 (abeam), then washed 3 times with PBS for 5 min each time, and then incubated with immunohistochemical secondary antibodies (Fujian Maixin) at room temperature for 20 min. Then, the sections was subjected to color development for 2 min by using DAB chromogenic kit (Fujian Maixin), rinsed with water to remove DAB, stained with hematoxylin for 2 min and rinsed with running water for 8 minutes to return blue. After drying, the sections were sealed with neutral gum and photographed.
# In this example, the degree of fibrosis in lung tissue was detected through Masson staining, using the Masson trichrome staining kit (Fujian Maixin).
# To investigate whether C1632 can be used for the treatment of IPF, the inventors treated IPF mice with C1632 according to the method of FIG. 9A, and divided the mice into (1) normal mice+normal saline group; (2) normal mice+C1632 group; (3) IPF mice+normal saline group; and (4) IPF mice+C1632 group, each group had at least 4 mice. At the end of the experiment, the lung tissues of the mice were taken and photographed. […] The lungs of the model group are dark red, and some lung lobes are gray white, hardened, and scattered gray white plaques of different sizes could be seen.
structure (smiles),measurement,setting,value
CC(=O)N(C)c1cccc(-c2ccc3nnc(C)n3n2)c1 [C1632],"Aortic vascular calcification, alizarin red staining",[1],significantly inhibits the progression of aortic vascular calcification
same,VP16-induced senescence (β-gal-positive cell rate) in BJ cells,[2],inhibits VP16-induced senescence
same,Killing activity of CD3+ T cells against senescent TC-1 cells (LDH release),"[3]; CD3+ T cells from C1632-treated IPF mice vs saline-treated IPF mice, FIG. 4C",significantly enhanced killing activity
same,Killing activity of CD8+ T cells against senescent cells (LDH release),"[3]; CD8+ T cells from C1632-treated IPF mice vs normal mice and saline-treated IPF mice, FIG. 4D",significantly higher
same,Killing activity of PBMC against senescent TC-1 cells (LDH release),"[3]; PBMC from C1632-treated IPF mice vs saline-treated IPF mice, FIG. 4B",significantly enhanced killing activity
same,Lung density relative to water (lung lobes placed in water),"[4]; IPF mice + C1632, FIG. 9C",less dense than water
same,Lung density (drainage method),"[4]; IPF mice + C1632 vs IPF mice + saline, FIG. 9D",significantly reduced
same,"Lung shape, color and hardness (gross appearance)","[4]; IPF mice + C1632 vs control group, FIG. 9B",closer to those of the control group
same,"Infiltration of CD45 (total immune cells) in lung, IHC","[4]; IPF mice, injection of C1632, FIG. 10A, 10B",significantly reduces the infiltration of immune cells
same,"Infiltration of CD68 (macrophages) in lung, IHC","[4]; IPF mice, injection of C1632, FIG. 10A, 10C",significantly reduces the infiltration
same,"Infiltration of CD3 (T cells) in lung, IHC","[4]; IPF mice, injection of C1632, FIG. 10A, 10D",significantly reduces the infiltration
same,Hydroxyproline content in lung,"[4]; IPF mice, FIG. 9I",significantly inhibit the increase of hydroxyproline
same,"Alveolar architecture and fibrosis areas, H&E and Masson staining","[4]; lungs of C1632-treated IPF mice, FIG. 9E to 9G",more alveolar architecture and less fibrosis areas
